According to patent publication EP1798220A1, “Dibenzene derivatives as calcium channel blockers” (Neuropharma S.A., priority 2005, dated 2007):

Test system: VDCC
Experiment: VDCC inhibition: calcium entry (Fluo-4 fluorescence) in SH-SY5Y cells after depolarization with 60 mM KCl
Assay type: cell-based, human
Details: 10 min exposure, 60 mM KCl depolarization
Method: This assay is aimed to determine the VDCC blocker activity of compounds; it is performed using SH-SY5Y neuroblastoma cells. SH-SY5Y cells were plated at 5x10^5 cells per well into Black / Clear Bottom 96-well culture plate, 48 hours before treatment. Cells were loaded with Fluo-4, 5 µM and pluronic acid, 0.1%, for 30 min at 37°C, 5%CO2, following a incubation of 15 min at RT in Krebs-HEPES solution. Immediately cells are exposed to the samples at different concentrations for 10 min. The compounds were tested at […], depending on potency. After the treatment, calcium entry is measured as fluorescence in a Fluostar Optima plate reader (BMG) in response to depolarization with 60 mM KCl. The excitation wavelength was 485 nm, and that of emission 520 nm.

| SMILES | % of calcium entry inhibition (compound at 10^-5 (M)) | % of calcium entry inhibition (compound at 10^-6 (M)) | % of calcium entry inhibition (compound at 10^-7 (M)) |
| --- | --- | --- | --- |
| COCOc1cc(OC)ccc1C(=O)NCCCCCCNC(=O)c1ccc(OC)cc1OCOC [Compound 3] | 37.5 ± 7% | 6,6 ± 2% |  |
| COCOc1cc(OC)ccc1C(=O)NCCCOc1c(Br)cc(CCNC(=O)c2ccc(OC)cc2OCOC)cc1Br [Compound 4] | 87.3 ± 5% | 27.3 ± 5% | 6 ± 0% |
| COc1cc(O)c(C(=O)NCCCCCNC(=O)c2cc(Br)c(OC)cc2O)cc1Br [Compound 5] | 21.8 ± 5% |  |  |
